Legend:
5-HT2C receptor = molecular target: T1, 5-HT2C receptor (Sus scrofa, UniProt K7GSR7); experiment: 5-HT2C receptor binding in pig choroid plexus (3H-methylsergide)
T1 construct: tissue NovaScreen/Caliper/Perkin-Elmer; host or cells: pig choroid plexus
T1 sequence (K7GSR7 1-457): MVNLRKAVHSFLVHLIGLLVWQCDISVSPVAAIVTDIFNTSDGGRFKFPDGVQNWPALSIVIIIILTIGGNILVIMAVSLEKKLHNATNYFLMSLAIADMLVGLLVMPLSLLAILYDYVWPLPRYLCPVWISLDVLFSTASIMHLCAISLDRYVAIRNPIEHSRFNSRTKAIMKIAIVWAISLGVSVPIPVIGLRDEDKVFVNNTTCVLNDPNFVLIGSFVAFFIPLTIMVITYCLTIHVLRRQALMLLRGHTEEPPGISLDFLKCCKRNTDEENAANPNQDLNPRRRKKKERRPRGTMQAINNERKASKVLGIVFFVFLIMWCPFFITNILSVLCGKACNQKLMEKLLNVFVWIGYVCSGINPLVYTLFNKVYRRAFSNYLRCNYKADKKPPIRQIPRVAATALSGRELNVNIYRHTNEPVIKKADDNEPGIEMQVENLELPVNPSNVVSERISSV
Experimental: Binding activity at a variety of receptor targets, including recombinant human serotonin receptors and rat dopamine D2 and human recombinant dopamine D4 receptors, was measured in vitro using standard radioligand displacement methods (NovaScreen/Caliper/Perkin-Elmer, Hanover, MD), to determine affinity. […] D2 receptor binding was measured at rat recombinant receptors expressed in Chinese hamster ovary (CHO) cells and using ^3H-methylspiperone as a radioligand and in rat striatum using ^3H-sulpiride as a radioligand. […] D4 receptor binding was measured at human recombinant receptor s expressed in CHO cells and using ^3 H-methylspiperone as a radioligand. D1 receptor binding at human recombinant receptor was measured in CHO cells using ^3H-SCH23390 as a radioligand. 5-HT2C receptor binding was measured in pig choroid plexus using ^3 H-methylsergide as a radioligand. Binding to alpha adrenergic receptors in the rat frontal cortex (alpha1A) or rat liver (alpha1B) was measured using ^3H-prazosin as a radioligand. Histamine H1 receptor binding was measured in bovine cere- bellum using ^3H-pyrilamine as a radioligand. […] The affinity constant (Ki) for each receptor subtype or inhibitory concentration 50 (IC50) for inhibition in functional assays was calculated.

social defeat model = experiment: Social interaction behavior after repeated social defeat; format: in vivo; conditions: mice, 1 mg/kg i.p. once daily 28 days after 10 days defeat; 150 s test
Experimental: Mice were tested for social isolation behavior after repeated exposure (for 10 days) to an aggressive resident mouse in the social defeat paradigm as described by [Berton et al. (2006)]. […] On the day after the last drug or vehicle treatment, the mice were placed in an open field in the presence of a resident mouse (within a smaller cage) and the animal’s behavior recorded by videotape for 150 s. Videotracking software (Noldus, Netherlands) was used to calculate the total time each mouse spent in specified open-field quadrants, defined schematically in Fig. 8. The total time (s) spent by mice representing each drug treatment group in the interaction zone (Fig. 8) in proximity to the resident mouse or, in the corner zones, at a distance from the resident mouse (Fig. 8) was expressed as a mean (±SEM).

[1] = test system: muscarinic cholinergic receptors; experiment: Binding to muscarinic cholinergic receptors
Adrenergic, 1β = test system: T2, Adrenergic, 1β; experiment: NovaScreen broad selectivity panel at 100 nM, Adrenergic 1β; conditions: average of replicate tubes, read-out: % Inhibition of binding at 100 nM concentration, Adrenergic 1β
T2 construct: tissue NovaScreen/Caliper/Perkin-Elmer; host or cells: rat liver (inferred)

[2] = test system: panel of 66 receptors, ion channels, and enzymes; experiment: NovaScreen broad selectivity panel at 100 nM, whole panel; format: binding
[3] = test system: serine 40 (S40)-phosphorylated tyrosine hydroxylase; experiment: Striatal tyrosine hydroxylase S40 phosphorylation state (CNSProfile immunoblotting); format: in vivo; conditions: mice, acute; ITI-007 3 mg/kg p.o., clozapine 5 i.p., aripiprazole 10 p.o., olanzapine 1 i.p., risperidone 3 p.o., haloperidol 1 i.p.; over 60 min; vs vehicle
Experimental: The effect of the selected compounds on the phosphorylation state of tyrosine hydroxylase (TH) was measured and quantitated as an indicator of the potential of each compound to perturb presynaptic dopamine synthesis in striatum. […] This technique preserves in vivo levels of brain protein phosphorylation ([Zhu et al. 2010]). […] Small aliquots of the homogenate were retained for protein determination by the bicinchoninic acid (BCA) protein assay method (Pierce Chemical Co., Rockford, IL). […] Immunoblotting was carried out using a phos-phorylation state-specific polyclonal antibody raised against […] (S40)-phosphorylated tyrosine hydroxylase (Chemicon, Temecula, CA) and a pan-TH monoclonal antibody for measuring the total protein levels (BD Biosciences, San Jose, CA). […] Antibody binding was detected and quantitated using a LiCor Odyssey infrared fluorescent detection system. Phosphorylation at each site detected by phospho-specific antibodies was quantified, normalized to total levels of the protein (non-phosphorylated), and expressed as percent±SEM of the level of phosphorylation in vehicle-treated control mice (N=6).

5-HT2A receptor = 5-HT2A receptor (Homo sapiens, UniProt P28223); experiment: Serotonin-mediated phosphatidylinositol (PI) turnover in HEK293 cells; format: cell-based; conditions: right-shifting the serotonin dose–response curve
Chain of 5-HT2A receptor (P28223 whole entry): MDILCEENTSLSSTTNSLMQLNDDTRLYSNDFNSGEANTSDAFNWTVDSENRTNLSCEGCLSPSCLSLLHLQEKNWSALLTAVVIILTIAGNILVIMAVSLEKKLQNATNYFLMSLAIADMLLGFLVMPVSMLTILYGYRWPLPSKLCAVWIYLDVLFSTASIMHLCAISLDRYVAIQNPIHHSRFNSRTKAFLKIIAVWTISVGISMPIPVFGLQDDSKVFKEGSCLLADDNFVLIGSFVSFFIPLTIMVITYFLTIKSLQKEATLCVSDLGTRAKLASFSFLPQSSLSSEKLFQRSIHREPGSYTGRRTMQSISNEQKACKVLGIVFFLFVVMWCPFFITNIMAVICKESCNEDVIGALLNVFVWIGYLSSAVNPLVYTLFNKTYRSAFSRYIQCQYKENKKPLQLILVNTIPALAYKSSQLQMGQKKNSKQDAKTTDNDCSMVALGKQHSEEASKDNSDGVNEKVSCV

T2 sequence (P15823 whole entry): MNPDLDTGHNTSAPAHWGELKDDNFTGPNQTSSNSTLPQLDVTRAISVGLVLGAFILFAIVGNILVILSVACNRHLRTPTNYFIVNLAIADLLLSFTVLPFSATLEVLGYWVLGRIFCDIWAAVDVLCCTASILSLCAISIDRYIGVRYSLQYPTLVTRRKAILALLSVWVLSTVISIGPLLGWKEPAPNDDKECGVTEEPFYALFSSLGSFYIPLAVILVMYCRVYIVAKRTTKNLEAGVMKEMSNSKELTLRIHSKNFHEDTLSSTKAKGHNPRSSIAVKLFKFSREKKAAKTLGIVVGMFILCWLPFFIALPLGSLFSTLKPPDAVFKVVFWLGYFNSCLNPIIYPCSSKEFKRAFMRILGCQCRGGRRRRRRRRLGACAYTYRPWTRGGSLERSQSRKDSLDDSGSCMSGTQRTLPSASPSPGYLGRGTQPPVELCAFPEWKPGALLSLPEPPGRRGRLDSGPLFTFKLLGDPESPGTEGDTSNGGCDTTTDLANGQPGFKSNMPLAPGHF

What does the source list for `CN1CCN2c3c(cccc31)[C@@H]1CN(CCCC(=O)c3ccc(F)cc3)CC[C@@H]12` [ITI-007, 1-(4-fluoro-phenyl)-4-((6bR,10aS)-3-methyl-2,3,6b,9,10,10a-hexahydro-1H,7H-pyrido[3′,4′:4,5]pyrrolo[1,2,3-de]quinoxalin-8-yl)-butan-1-one]?
Binding to 5-HT2C receptors (5-HT2C receptor): did not significantly bind; Ki (5-HT2C receptor; radioligand displacement, unit inferred): 173 nM; Time spent in interaction zone (social behavior) after chronic social defeat (social defeat model): no such reduction in social behavior; Binding to muscarinic cholinergic receptors (e.g., M3 subclasses) [1]: no significant binding; inhibition at 0.1 µM (Adrenergic, 1β): 85.4%; Binding to the other targets of the panel ([2]; 100 nM, custom panel of 66 receptors, ion channels, and enzymes): did not bind significantly; Ki ([2]; read-out: projected Ki values (>50 % binding inhibition), single concentration 100 nM, at the 5-HT2A, D1, D2, D4, alpha1A and alpha1B receptors, and at SERT): ≤ 100 nM; Effect on TH phosphorylation at S40 in striatum [3]: no significant effect; Effect on serotonin-mediated increases in phosphatidylinositol (PI) turnover (5-HT2A receptor): antagonize
